Measurements: ChEMBL document CHEMBL1149275, “Structure-activity relationships of acetylcholinesterase noncovalent inhibitors based on a polyamine backbone. 3. Effect of replacing the inner polymethylene chain with cyclic moieties” (J Med Chem, 2004)

Tests used:
Cholinesterase = Cholinesterase (Homo sapiens, UniProt P06276)
Description: Inhibition of human recombinant BChE

Acetylcholinesterase = Acetylcholinesterase (Homo sapiens, UniProt P22303)
Description: Inhibition of human recombinant AChE

[1] = biological target: T1, Muscarinic acetylcholine receptor M2 (Homo sapiens) (UniProt P08172); conditions: Cavia porcellus; Cardiac atrium
T1 sequence (whole entry): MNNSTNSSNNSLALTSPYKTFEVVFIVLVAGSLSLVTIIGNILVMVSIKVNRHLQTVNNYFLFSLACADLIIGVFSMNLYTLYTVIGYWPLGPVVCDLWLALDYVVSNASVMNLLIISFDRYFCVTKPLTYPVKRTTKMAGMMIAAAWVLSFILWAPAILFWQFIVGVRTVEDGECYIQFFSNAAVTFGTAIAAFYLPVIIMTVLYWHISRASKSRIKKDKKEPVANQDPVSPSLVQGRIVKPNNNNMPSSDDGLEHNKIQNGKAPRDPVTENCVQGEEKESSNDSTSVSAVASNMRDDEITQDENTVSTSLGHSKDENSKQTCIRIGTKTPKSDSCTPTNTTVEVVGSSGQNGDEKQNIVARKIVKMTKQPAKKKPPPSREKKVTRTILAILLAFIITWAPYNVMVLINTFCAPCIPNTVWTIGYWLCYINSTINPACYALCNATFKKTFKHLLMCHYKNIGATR
Description: Antagonist activity at muscarinic M2 receptor assessed as contraction of electrically stimulated guinea pig left atrium at 10 uM

Cholinesterase, sequence (P06276 whole entry): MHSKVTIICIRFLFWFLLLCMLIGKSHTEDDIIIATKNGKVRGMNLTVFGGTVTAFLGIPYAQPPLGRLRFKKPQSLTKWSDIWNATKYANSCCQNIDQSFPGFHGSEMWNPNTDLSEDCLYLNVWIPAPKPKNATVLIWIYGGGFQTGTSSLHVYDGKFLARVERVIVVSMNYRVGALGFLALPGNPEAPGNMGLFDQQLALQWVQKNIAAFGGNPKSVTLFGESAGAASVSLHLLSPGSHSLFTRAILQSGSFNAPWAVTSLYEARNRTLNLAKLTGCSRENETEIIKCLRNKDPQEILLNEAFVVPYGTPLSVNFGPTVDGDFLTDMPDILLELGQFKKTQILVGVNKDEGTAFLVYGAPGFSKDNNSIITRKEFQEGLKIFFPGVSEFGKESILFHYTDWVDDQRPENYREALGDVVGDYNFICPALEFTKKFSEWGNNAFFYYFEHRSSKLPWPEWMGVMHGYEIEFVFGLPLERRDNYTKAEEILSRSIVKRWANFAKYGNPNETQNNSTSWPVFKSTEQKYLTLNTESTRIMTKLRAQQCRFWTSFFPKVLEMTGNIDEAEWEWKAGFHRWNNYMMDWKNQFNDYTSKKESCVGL
Acetylcholinesterase, sequence (P22303 whole entry): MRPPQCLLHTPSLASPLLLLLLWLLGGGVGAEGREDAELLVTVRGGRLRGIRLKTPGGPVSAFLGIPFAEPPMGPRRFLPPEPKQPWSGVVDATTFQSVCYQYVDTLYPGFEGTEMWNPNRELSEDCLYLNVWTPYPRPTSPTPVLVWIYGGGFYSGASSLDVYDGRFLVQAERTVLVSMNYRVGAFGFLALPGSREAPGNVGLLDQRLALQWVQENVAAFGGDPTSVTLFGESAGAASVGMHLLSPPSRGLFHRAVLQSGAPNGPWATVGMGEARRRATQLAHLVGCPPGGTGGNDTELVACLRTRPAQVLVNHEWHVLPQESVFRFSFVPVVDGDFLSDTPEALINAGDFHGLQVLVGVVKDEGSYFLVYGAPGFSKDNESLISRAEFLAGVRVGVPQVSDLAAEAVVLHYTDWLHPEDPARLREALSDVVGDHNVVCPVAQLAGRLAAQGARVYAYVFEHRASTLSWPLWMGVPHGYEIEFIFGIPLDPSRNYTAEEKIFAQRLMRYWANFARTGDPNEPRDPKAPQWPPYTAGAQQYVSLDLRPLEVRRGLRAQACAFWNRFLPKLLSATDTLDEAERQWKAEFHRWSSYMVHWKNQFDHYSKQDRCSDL

In the case of CCN(CCCCCC(=O)Nc1ccc(Cc2ccc(NC(=O)CCCCCN(CC)Cc3ccccc3OC)cc2)cc1)Cc1ccccc1OC, the IC50 (Cholinesterase) is reported as 1.82 µM and the IC50 (Acetylcholinesterase) is reported as 0.0631 µM.

CCN(CCCCCC(=O)Nc1ccc(CCc2ccc(NC(=O)CCCCCN(CC)Cc3ccccc3OC)cc2)cc1)Cc1ccccc1OC showed an IC50 (Cholinesterase) of 1.7 µM and an IC50 (Acetylcholinesterase) of 0.17 µM.

Molecule CCN(CCCCCCNc1ccc(-c2ccc(NCCCCCCN(CC)Cc3ccccc3OC)cc2)cc1)Cc1ccccc1OC has an IC50 (Cholinesterase) of 15.5 µM and an IC50 (Acetylcholinesterase) of 2.63 µM.

With CC[N+](C)(CCCCCC(=O)N1CCC(CCC2CCN(C(=O)CCCCC[N+](C)(CC)Cc3ccccc3OC)CC2)CC1)Cc1ccccc1OC (stereo not given) the IC50 (Cholinesterase) was 1.86 µM and the IC50 (Acetylcholinesterase) was 0.00575 µM.

With COc1ccccc1CN(C)CCCCCC(=O)N(C)CCCCCCCCN(C)C(=O)CCCCCN(C)Cc1ccccc1OC the pKb [1] was 6.39.

For CC[N+](C)(CCCCCC(=O)Nc1ccc(CCc2ccc(NC(=O)CCCCC[N+](C)(CC)Cc3ccccc3OC)cc2)cc1)Cc1ccccc1OC (stereo not given), the IC50 (Cholinesterase) was 1.1 µM and the IC50 (Acetylcholinesterase) was 0.12 µM.

CCN(CCCCCCNc1ccc(CCc2ccc(NCCCCCCN(CC)Cc3ccccc3OC)cc2)cc1)Cc1ccccc1OC gave an IC50 (Cholinesterase) of 95.5 µM and an IC50 (Acetylcholinesterase) of 30.9 µM.

CCN(CCCCCCNc1ccc(Cc2ccc(NCCCCCCN(CC)Cc3ccccc3OC)cc2)cc1)Cc1ccccc1OC was tested, and the IC50 (Cholinesterase) was 1.62 µM and the IC50 (Acetylcholinesterase) was 1.07 µM.

CCN(CCCCCC(=O)N(C)CCCCCCCCN(C)C(=O)CCCCCN(CC)Cc1ccccc1OC)Cc1ccccc1OC gave a pKb [1] of 5.65.

CCN(CCCCCC(=O)N1CCC(CCC2CCN(C(=O)CCCCCN(CC)Cc3ccccc3OC)CC2)CC1)Cc1ccccc1OC showed an IC50 (Cholinesterase) of 3.63 µM and an IC50 (Acetylcholinesterase) of 0.00741 µM.

Molecule CCN(CCCCCC(=O)N1CCC(CC2CCN(C(=O)CCCCCN(CC)Cc3ccccc3OC)CC2)CC1)Cc1ccccc1OC has an IC50 (Cholinesterase) of 6.46 µM and an IC50 (Acetylcholinesterase) of 0.00331 µM.

With CC[N+](C)(CCCCCC(=O)N1CCC(CCCC2CCN(C(=O)CCCCC[N+](C)(CC)Cc3ccccc3OC)CC2)CC1)Cc1ccccc1OC (stereo not given) the IC50 (Cholinesterase) was 0.661 µM and the IC50 (Acetylcholinesterase) was 0.00575 µM.

In the case of CCN(CCCCCC(=O)N1CCC(C2CCN(C(=O)CCCCCN(CC)Cc3ccccc3OC)CC2)CC1)Cc1ccccc1OC, the pKb [1] is reported as 6.18, the IC50 (Cholinesterase) is reported as 8.51 µM and the IC50 (Acetylcholinesterase) is reported as 0.00331 µM. For the same molecule, the Ki (Acetylcholinesterase) was 0.00567 µM.

CCN(CCCCCC(=O)N1CCC(CCCC2CCN(C(=O)CCCCCN(CC)Cc3ccccc3OC)CC2)CC1)Cc1ccccc1OC showed an IC50 (Cholinesterase) of 3.39 µM and an IC50 (Acetylcholinesterase) of 0.00661 µM.

For CCN(CCCCCC(=O)Nc1ccc(-c2ccc(NC(=O)CCCCCN(CC)Cc3ccccc3OC)cc2)cc1)Cc1ccccc1OC, the IC50 (Cholinesterase) was 1.86 µM and the IC50 (Acetylcholinesterase) was 0.0363 µM.
